{
  "source": "patent US20230058171A1",
  "about": "“NEW ORAL PHARMACEUTICAL COMPOSITION FOR CANCER THERAPY” (BOEHRINGER INGELHEIM INTERNATIONAL GMBH, priority 2021, published 2023)",
  "key": {"[1]": {"system": "patients with advanced or metastatic solid tumors", "test": "Trial 1403-0001 Phase Ia dose escalation, Arm A (D1 q3w): adverse events", "format": "in vivo", "excerpt": "Trial 1403-0001 was a first in human Phase Ia/Ib, open label, multicenter, dose-escalation study of the MDM2-antagonist of formula I in patients with advanced or metastatic solid tumors. The Phase Ia dose escalation part aimed to define the Maximum Tolerated Dose (MTD) and the Recommended Dose for Expansion (RDE) for the MDM2-antagonist of formula I based on safety and tolerability, pharmacokinetics, pharmacodynamics, and preliminary efficacy. The RDE will be further explored in the Phase Ib expansion part of the trial.\nFifty-four patients had been treated with the MDM2-antagonist of formula I in the Phase Ia dose escalation part of clinical trial 1403-0001. Twenty-nine patients were treated in Arm A (dosing regimen: dosing on Day 1 of a 21 days-cycle, D1 q3w) and twenty-five patients were treated in Arm B (dosing regimen: dosing on Day 1 and on Day 8 of a 28 days-cycle, D1 D8 q4w). Dose levels evaluated in Arm A were 10, 20, 30, 45, 50, 60, and 80 mg. Dose levels evaluated in Arm B (referring to the dose administered on Day 1 and Day 8) were 5, 10, 15, 20, 30, 45, and 60 mg.\nDuring the on-treatment period, all 29 patients were reported with adverse events (AEs). […] A total of 27 patients (93.1%) were reported with at least 1 AE judged to be related to the MDM2-antagonist of formula I by investigators."}, "SJSA-1 xenograft": {"system": "SJSA-1 xenograft", "test": "Mouse SJSA-1 xenograft experiment: minimum effective AUC", "format": "in vivo", "conditions": "QW", "experimental": "Preliminary pharmacokinetic (PK) data were used as supportive information for the dose decision. The human therapeutic dose was predicted based on a minimum effective AUC0-168 of 30,700 nM*h (QW), which was determined in a mouse SJSA-1 xenograft experiment. For this, the difference in plasma protein binding between human and mouse was taken into account, which translated to an effective AUC0-168 of 11,350 nM*h for QW dosing in humans. The human therapeutic dose was predicted to be 64 mg (free acid) with QW dosing."}},
  "data": [
    {"smiles": "Cc1c(C(=O)O)ccc2c3n(nc12)[C@@H]1[C@H](C3)N(CC2CC2)[C@@]2(C(=O)Nc3cc(Cl)ccc32)[C@H]1c1cccc(Cl)c1F", "note": "[MDM2-antagonist of formula I, (2′S,3′S,3a'S,10a'S)-6-chloro-3′-(3-chloro-2-fluorophenyl)-1′-(cyclopropylmethyl)-6′-methyl-2-oxo-1,2,3′,3a′,10′,10a′-hexahydro-1′H-spiro[indole-3,2′-pyrrolo[2′,3′:4,5]pyrrolo[1,2-b]indazole]-7′-carboxylic acid]", "values": [
      {"measurement": "Serious AEs: Results in Death, %", "setting": "[1]; Arm A D1 q3w, 10 mg", "result": 0, "unit": "%"},
      {"measurement": "Subjects with maximum CTC Grade 5, %", "setting": "[1]; Arm A D1 q3w, 10 mg", "result": 0, "unit": "%"},
      {"measurement": "Serious AEs: Results in Death, %", "setting": "[1]; Arm A D1 q3w, 20 mg", "result": 0, "unit": "%"},
      {"measurement": "Subjects with maximum CTC Grade 5, %", "setting": "[1]; Arm A D1 q3w, 20 mg", "result": 0, "unit": "%"},
      {"measurement": "Serious AEs: Results in Death, %", "setting": "[1]; Arm A D1 q3w, 30 mg", "result": 0, "unit": "%"},
      {"measurement": "Subjects with AEs leading to dose reduction of trial drug, %", "setting": "[1]; Arm A D1 q3w, 30 mg", "result": 33.3, "unit": "%"},
      {"measurement": "Subjects with maximum CTC Grade 2, %", "setting": "[1]; Arm A D1 q3w, 30 mg", "result": 33.3, "unit": "%"},
      {"measurement": "Subjects with maximum CTC Grade 3, %", "setting": "[1]; Arm A D1 q3w, 30 mg", "result": 66.7, "unit": "%"},
      {"measurement": "Subjects with maximum CTC Grade 5, %", "setting": "[1]; Arm A D1 q3w, 30 mg", "result": 0, "unit": "%"},
      {"measurement": "Patients with Dose limiting toxicity, %", "setting": "[1]; Arm A D1 q3w, 45 mg", "result": 33.3, "unit": "%"},
      {"measurement": "Serious AEs: Results in Death, %", "setting": "[1]; Arm A D1 q3w, 45 mg", "result": 0, "unit": "%"},
      {"measurement": "Subjects with AEs leading to dose reduction of trial drug, %", "setting": "[1]; Arm A D1 q3w, 45 mg", "result": 33.3, "unit": "%"},
      {"measurement": "Subjects with maximum CTC Grade 3, %", "setting": "[1]; Arm A D1 q3w, 45 mg", "result": 33.3, "unit": "%"},
      {"measurement": "Subjects with maximum CTC Grade 5, %", "setting": "[1]; Arm A D1 q3w, 45 mg", "result": 0, "unit": "%"},
      {"measurement": "Serious AEs: Results in Death, %", "setting": "[1]; Arm A D1 q3w, 50 mg", "result": 0, "unit": "%"},
      {"measurement": "Subjects with maximum CTC Grade 5, %", "setting": "[1]; Arm A D1 q3w, 50 mg", "result": 0, "unit": "%"},
      {"measurement": "Serious AEs: Results in Death, %", "setting": "[1]; Arm A D1 q3w, 60 mg", "result": 0, "unit": "%"},
      {"measurement": "Subjects with maximum CTC Grade 3, %", "setting": "[1]; Arm A D1 q3w, 60 mg", "result": 71.4, "unit": "%"},
      {"measurement": "Subjects with maximum CTC Grade 5, %", "setting": "[1]; Arm A D1 q3w, 60 mg", "result": 0, "unit": "%"},
      {"measurement": "Patients with Dose limiting toxicity, %", "setting": "[1]; Arm A D1 q3w, 80 mg", "result": 66.7, "unit": "%"},
      {"measurement": "Serious AEs: Requires or Prolongs Hospitalization, %", "setting": "[1]; Arm A D1 q3w, 80 mg", "result": 33.3, "unit": "%"},
      {"measurement": "Serious AEs: Results in Death, %", "setting": "[1]; Arm A D1 q3w, 80 mg", "result": 0, "unit": "%"},
      {"measurement": "Subjects with maximum CTC Grade 2, %", "setting": "[1]; Arm A D1 q3w, 80 mg", "result": 33.3, "unit": "%"},
      {"measurement": "Subjects with maximum CTC Grade 4, %", "setting": "[1]; Arm A D1 q3w, 80 mg", "result": 66.7, "unit": "%"},
      {"measurement": "Subjects with maximum CTC Grade 5, %", "setting": "[1]; Arm A D1 q3w, 80 mg", "result": 0, "unit": "%"},
      {"measurement": "Subjects with serious AEs, %", "setting": "[1]; Arm A D1 q3w, 80 mg", "result": 33.3, "unit": "%"},
      {"measurement": "Serious AEs: Requires or Prolongs Hospitalization, %", "setting": "[1]; Arm A D1 q3w, Total", "result": 31.0, "unit": "%"},
      {"measurement": "Serious AEs: Results in Death, %", "setting": "[1]; Arm A D1 q3w, Total", "result": 0, "unit": "%"},
      {"measurement": "Subjects with AEs leading to Discontinuation of trial drug, %", "setting": "[1]; Arm A D1 q3w, Total", "result": 6.9, "unit": "%"},
      {"measurement": "Subjects with maximum CTC Grade 5, %", "setting": "[1]; Arm A D1 q3w, Total", "result": 0, "unit": "%"},
      {"measurement": "drug-related AE diarrhea, patients", "setting": "[1]; Arm A, all 29 patients", "result": 27.6, "unit": "%"},
      {"measurement": "drug-related AE fatigue, patients", "setting": "[1]; Arm A, all 29 patients", "result": 41.1, "unit": "%"},
      {"measurement": "drug-related AE nausea, patients", "setting": "[1]; Arm A, all 29 patients", "result": 72.4, "unit": "%"},
      {"measurement": "drug-related AE platelet count decreased, patients", "setting": "[1]; Arm A, all 29 patients", "result": 37.9, "unit": "%"},
      {"measurement": "drug-related AE vomiting, patients", "setting": "[1]; Arm A, all 29 patients", "result": 41.1, "unit": "%"},
      {"measurement": "drug-related AE white blood cell count decreased, patients", "setting": "[1]; Arm A, all 29 patients", "result": 27.6, "unit": "%"},
      {"measurement": "fatal AEs", "setting": "[1]; Arm A, all 29 patients", "result": "No fatal AEs were reported"},
      {"measurement": "patients with DLTs during the MTD evaluation period (cycle 1)", "setting": "[1]; Arm A, all 29 patients", "result": 17.2, "unit": "%"},
      {"measurement": "AE anemia, patients", "setting": "[1]; human, in vivo", "result": 41.4, "unit": "%"},
      {"measurement": "AE back pain, patients", "setting": "[1]; human, in vivo", "result": 20.7, "unit": "%"},
      {"measurement": "AE decreased appetite, patients", "setting": "[1]; human, in vivo", "result": 41.4, "unit": "%"},
      {"measurement": "AE diarrhea, patients", "setting": "[1]; human, in vivo", "result": 34.5, "unit": "%"},
      {"measurement": "AE fatigue, patients", "setting": "[1]; human, in vivo", "result": 51.7, "unit": "%"},
      {"measurement": "AE nausea, patients", "setting": "[1]; human, in vivo", "result": 82.8, "unit": "%"},
      {"measurement": "AE platelet count decreased, patients", "setting": "[1]; human, in vivo", "result": 37.9, "unit": "%"},
      {"measurement": "AE vomiting, patients", "setting": "[1]; human, in vivo", "result": 48.3, "unit": "%"},
      {"measurement": "AEs leading to Discontinuation: Other adverse event, %", "setting": "[1]; human, in vivo", "result": 3.4, "unit": "%"},
      {"measurement": "Grade 3 AE platelet count decreased, patients", "setting": "[1]; human, in vivo", "result": 13.8, "unit": "%"},
      {"measurement": "Grade 4 AE neutrophil count decreased, patients", "setting": "[1]; human, in vivo", "result": 10.3, "unit": "%"},
      {"measurement": "SAE platelet count decreased, patients", "setting": "[1]; human, in vivo", "result": 6.9, "unit": "%"},
      {"measurement": "Serious AEs: Cogenital Anomaly or Birth Defect, %", "setting": "[1]; human, in vivo", "result": 0, "unit": "%"},
      {"measurement": "Serious AEs: Is Life Threatening, %", "setting": "[1]; human, in vivo", "result": 0, "unit": "%"},
      {"measurement": "Serious AEs: Other Medically Important Serious Event, %", "setting": "[1]; human, in vivo", "result": 3.4, "unit": "%"},
      {"measurement": "Serious AEs: Persists of Signif. Disability/Incapacity, %", "setting": "[1]; human, in vivo", "result": 0, "unit": "%"},
      {"measurement": "Subjects with any AE, %", "setting": "[1]; human, in vivo", "result": 100, "unit": "%"},
      {"measurement": "Subjects with investigator defined drug-related AEs, %", "setting": "[1]; human, in vivo", "result": 93.1, "unit": "%"},
      {"measurement": "Subjects with maximum CTC Grade 1, %", "setting": "[1]; human, in vivo", "result": 3.4, "unit": "%"},
      {"measurement": "Subjects with maximum CTC Grade 2, %", "setting": "[1]; human, in vivo", "result": 27.6, "unit": "%"},
      {"measurement": "Subjects with maximum CTC Grade 3, %", "setting": "[1]; human, in vivo", "result": 51.7, "unit": "%"},
      {"measurement": "Subjects with maximum CTC Grade 4, %", "setting": "[1]; human, in vivo", "result": 17.2, "unit": "%"},
      {"measurement": "Subjects with serious AEs, %", "setting": "[1]; human, in vivo", "result": 31.0, "unit": "%"},
      {"measurement": "dose reduction due to enterocolitis, patients", "setting": "[1]; human, in vivo", "result": 3.4, "unit": "%"},
      {"measurement": "dose reduction due to nausea, patients", "setting": "[1]; human, in vivo", "result": 6.9, "unit": "%"},
      {"measurement": "dose reduction due to neutropenia and/or thrombocytopenia, patients", "setting": "[1]; human, in vivo", "result": 20.7, "unit": "%"},
      {"measurement": "drug-related AE anemia, patients", "setting": "[1]; human, in vivo", "result": 24.1, "unit": "%"},
      {"measurement": "drug-related AE decreased appetite, patients", "setting": "[1]; human, in vivo", "result": 34.5, "unit": "%"},
      {"measurement": "minimum effective AUC0-168", "setting": "SJSA-1 xenograft", "result": "30,700 nM*h"}
    ]}
  ]
}
